Source: patent US20100093616A1 (priority 2005, published 2010)

What was measured:
Type in all cases: in vivo, Lewis Rats
[1] = system: Experimental Autoimmune Encephalytis (EAE); experiment: Prophylactic scheme in EAE animal model (Example 2); conditions: for Clinical scores maximum / Clinical scores minimum / Incidence (%): EGF/GHRP-6 200-740, EGF 200, GHRP-6 740 μg/kg/day; for N° of perivascular inflammatory infiltrates (Means ± SD): brain and spinal cord, day 40, EGF/GHRP-6 200-740, EGF 200, GHRP-6 740 μg/kg/day; for Incidence (%): i.p. days -10 to -1 before first immunization, 8 rats per group
Description: (§1) This prophylactic scheme was followed for 10 days (−10 to −1 day before the first immunization), using the intraperitoneal administration route. Clinical scores was based on the following grading: 0; no symptom, 1; tail paralysis, 2; paralysis of any of the hind limbs, 3; full paralysis of the hind limbs, 4; complete paralysis of the fore and hind limbs 5; moribund or death. Weight loss and vesical and rectal sphincter incontinency, which are also clinical signs of the disease, are scored by adding 0.5 to the clinical index previously described. Forty days after the first immunization the animals were anesthetized and euthanized, the encephalon and spinal cord were processed for histopathological study (10% de formalin, H & E y Luxol Blue staining). For the histopathological analysis the following parameters were consider: number and size of perivascular inflammatory infiltrates, number of demyelination lesions, number of apoptotic neurons and glial cells and astrocytes reactivity. The microscopic study was blindly conducted.

[2] = system: Experimental Autoimmune Encephalytis (EAE); experiment: Therapeutical effect in EAE biomodel (Example 1); conditions: therapeutical scheme; for N° of perivascular inflammatory infiltrates (Means ± SD): brain and spinal cord, day 40; for Incidence (%): i.p. 10 days from day 10 after first immunization, EGF/GHRP-6 200-740 μg/kg/day, EGF 200 μg/kg/day, GHRP-6 740 μg/kg/day, 8 rats per group
Experimental: as §1, with “Female Lewis Rats (130 g), were subcutaneously immunized with guinea pig spinal cord homogenate (5 mg) in PBS (50%) and complete Freund adjuvant (50%), during days 0 and 6. […] This” for “This”, “therapeutical” for “prophylactic”, “days,” for “days (−10 to −1 day before the first immunization),”, “using” for “using the”, “administration.” for “administration route.”

[3] = system: Experimental Autoimmune Encephalytis (EAE); experiment: Dose study of the combination in EAE model, therapeutical scheme (Example 3); conditions: EGF component of the combination
Experimental: Looking for a range of doses for the pharmaceutical combination that would be efficient for the therapeutic effects, it was used in the afore mentioned EAE model Female Lewis Rats (130 g), were subcutaneously immunized with guinea pig spinal cord homogenate (5 mg) in PBS (50%) and complete Freund adjuvant (50%), during days 0 and 6.
as §1, with “therapeutical” for “prophylactic”, “days,” for “days (−10 to −1 day before the first immunization),”, “using” for “using the”, “administration.” for “administration route.”

[4] = i.p. days -10 to -1, EGF/GHRP-6 200-740, EGF 200, GHRP-6 740 μg/kg/day
[5] = EGF/GHRP-6 200-740, EGF 200, GHRP-6 740 μg/kg/day
[6] = i.p. 10 days, EGF/GHRP-6 200-740, EGF 200, GHRP-6 740 μg/kg/day
[7] = i.p. 10 days, EGF/GHRP-6 200-740, EGF 200, GHRP-6 740 μg/kg/day, scale 0-5

Epidermal Growth Factor [EGF]
Clinical scores maximum ([1]; scale 0-5): 4
Clinical scores minimum ([1]; scale 0-5): 1
N° of perivascular inflammatory infiltrates (Means ± SD) [1]: 4 ± 1.6
Days of Debut (Mean ± SD) [1, 4]: 11.5 ± 0.57 days
Incidence (%) [1]: 100%
N° of perivascular inflammatory infiltrates (Means ± SD) [2, 5]: 4.5 ± 1.9
Incidence (%) [2]: 100%
Days of Debut (Mean ± SD) [2, 6]: 12.5 ± 0.57 days
Disease duration [2, 6]: 12.7 ± 4.1
Clinical scores minimum [2, 7]: 1
dose range that maintains usefulness of the combination for protection against induction of EAE [3]: 50 to 400 µg/kg/day

His-D-Trp-Ala-Trp-D-Phe-Lys-NH sub 2 [GHRP-6]
Clinical scores maximum ([1]; scale 0-5): 4
Clinical scores minimum ([1]; scale 0-5): 1
N° of perivascular inflammatory infiltrates (Means ± SD) [1]: 2.7 ± 1.95
Days of Debut (Mean ± SD) [1, 4]: 11.7 ± 2.3 days
Clinical scores Means ± SD (mean clinical index) ([1]; i.p. days -10 to -1, EGF/GHRP-6 200-740, EGF 200, GHRP-6 740 μg/kg/day, scale 0-5): 2.7±1.03
Incidence (%) [1]: 100%
N° of perivascular inflammatory infiltrates (Means ± SD) [2, 5]: 2.25 ± 1.25
Incidence (%) [2]: 100%
Days of Debut (Mean ± SD) [2, 6]: 13.7 ± 2.3 days
Disease duration [2, 6]: 15.5 ± 6.7
Clinical Scores Mean ± SD (mean clinical index) [2, 7]: 1.5±1.6
Clinical scores maximum [2, 7]: 4
Clinical scores minimum [2, 7]: 0.5
